# Source: ChEMBL document CHEMBL1201862, “PubChem BioAssay data set” (2004)
#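 Cultured in 96-well plates, cells were exposed to test compound for 48 hours across five concentrations. Here, GI50 denotes the concentration required for 50% inhibition of growth.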 Active and inactive are the calls of the source. Rule as the data show it: active = GI50 up to about 1.1 µM and inactive = higher.
# Columns and labels:
# Assay in all cases: NCI anticancer screen, dose series, 48 h
# EKVX = test system: EKVX
# UACC-62 = test system: UACC-62
# SNB-19 = test system: SNB-19
# HOP-62 = test system: HOP-62
# DMS-273 = test system: DMS-273
# KM12 = test system: KM12
# HT-29 = test system: HT-29
# LOX IMVI = test system: LOX IMVI
# TK-10 = test system: TK-10
# SW-620 = test system: SW-620
# HCT-15 = test system: HCT-15
# CCRF-CEM = test system: CCRF-CEM
# UO-31 = test system: UO-31
# U-251 = test system: U-251
# IGROV-1 = test system: IGROV-1
# HCC 2998 = test system: HCC 2998
# COLO 205 = test system: COLO 205
# M14 = test system: M14
# DLD-1 = test system: DLD-1
# SNB-75 = test system: SNB-75
# HOP-18 = test system: HOP-18
# XF498 = test system: XF498
# OVCAR-8 = test system: OVCAR-8
# HOP-92 = test system: HOP-92
# MOLT-4 = test system: MOLT-4
# OVCAR-4 = test system: OVCAR-4
# SNB-78 = test system: SNB-78
# SF-539 = test system: SF-539
# NCI-H460 = test system: NCI-H460
# LXFL 529 = test system: LXFL 529
# K562 = test system: K562
# CAKI-1 = test system: CAKI-1
# M19-MEL = test system: M19-MEL
# SN12C = test system: SN12C
# SK-MEL-2 = test system: SK-MEL-2
# A549 = test system: A549
# SK-MEL-28 = test system: SK-MEL-28
# NCI-H522 = test system: NCI-H522
# HL-60 = test system: HL-60
# RPMI-8226 = test system: RPMI-8226
# 786-0 = test system: 786-0
# SK-OV-3 = test system: SK-OV-3
# NCI-H226 = test system: NCI-H226
# Malme-3M = test system: Malme-3M
# SR = test system: SR
# ACHN = test system: ACHN
# NCI-H23 = test system: NCI-H23
# SK-MEL-5 = test system: SK-MEL-5
# RXF 393 = test system: RXF 393
# SF-295 = test system: SF-295
# OVCAR-5 = test system: OVCAR-5
# SF-268 = test system: SF-268
# HCT-116 = test system: HCT-116
# KM-20L2 = test system: KM-20L2
# UACC-257 = test system: UACC-257
# OVCAR-3 = test system: OVCAR-3
# DMS-114 = test system: DMS-114
# A498 = test system: A498
smiles,measurement,setting,value
Oc1cc(-c2ccc3c(c2)OCO3)nc2cc3c(cc12)OCO3,GI50,EKVX,> 100 µM (inactive)
same,GI50,UACC-62,36.9 µM (inactive)
same,GI50,SNB-19,54.3 µM (inactive)
same,GI50,HOP-62,22.9 µM (inactive)
same,GI50,DMS-273,21.3 µM (inactive)
same,GI50,KM12,36.1 µM (inactive)
same,GI50,HT-29,37.8 µM (inactive)
same,GI50,LOX IMVI,57.8 µM (inactive)
same,GI50,TK-10,63.8 µM (inactive)
same,GI50,SW-620,35.8 µM (inactive)
same,GI50,HCT-15,40.3 µM
same,GI50,CCRF-CEM,31.7 µM (inactive)
same,GI50,UO-31,> 100 µM (inactive)
same,GI50,U-251,30.5 µM (inactive)
same,GI50,IGROV-1,> 100 µM (inactive)
same,GI50,HCC 2998,31.4 µM (inactive)
same,GI50,COLO 205,31.5 µM (inactive)
same,GI50,M14,27.9 µM (inactive)
same,GI50,DLD-1,55.8 µM (inactive)
same,GI50,SNB-75,1.01 µM (active)
same,GI50,HOP-18,72.6 µM (inactive)
same,GI50,XF498,31.8 µM (inactive)
same,GI50,OVCAR-8,25.7 µM (inactive)
same,GI50,HOP-92,> 100 µM (inactive)
same,GI50,MOLT-4,59.8 µM (inactive)
same,GI50,OVCAR-4,> 100 µM (inactive)
same,GI50,SNB-78,43 µM (inactive)
same,GI50,SF-539,23 µM (inactive)
same,GI50,NCI-H460,40.2 µM (inactive)
same,GI50,LXFL 529,68.4 µM (inactive)
same,GI50,K562,28.8 µM (inactive)
same,GI50,CAKI-1,64.4 µM (inactive)
same,GI50,M19-MEL,20.5 µM (inactive)
same,GI50,SN12C,39.5 µM (inactive)
same,GI50,SK-MEL-2,31.1 µM (inactive)
same,GI50,A549,42.9 µM (inactive)
same,GI50,SK-MEL-28,37.4 µM (inactive)
same,GI50,NCI-H522,40.2 µM (inactive)
same,GI50,HL-60,24.5 µM (inactive)
same,GI50,RPMI-8226,37.5 µM (inactive)
same,GI50,786-0,34.9 µM (inactive)
same,GI50,SK-OV-3,30.9 µM (inactive)
same,GI50,NCI-H226,34.4 µM (inactive)
same,GI50,Malme-3M,21.2 µM (inactive)
same,GI50,SR,6.35 µM (inactive)
same,GI50,ACHN,46.1 µM (inactive)
same,GI50,NCI-H23,32.4 µM (inactive)
Cc1cc(C)nc(NS(=O)(=O)c2ccc(NC(=O)c3cccn4c(=O)c5ccccc5nc34)cc2)n1,GI50,EKVX,26.1 µM (inactive)
same,GI50,UACC-62,20.5 µM (inactive)
same,GI50,SNB-19,62.5 µM (inactive)
same,GI50,HOP-62,> 100 µM (inactive)
same,GI50,DMS-273,34.4 µM (inactive)
same,GI50,KM12,41.1 µM (inactive)
same,GI50,HT-29,40.2 µM (inactive)
same,GI50,LOX IMVI,29.1 µM (inactive)
same,GI50,TK-10,> 100 µM (inactive)
same,GI50,SW-620,34.9 µM (inactive)
same,GI50,HCT-15,31 µM
same,GI50,CCRF-CEM,27.5 µM (inactive)
same,GI50,UO-31,27.5 µM (inactive)
same,GI50,U-251,37.4 µM (inactive)
same,GI50,IGROV-1,> 100 µM (inactive)
same,GI50,HCC 2998,> 100 µM (inactive)
same,GI50,COLO 205,40.6 µM (inactive)
same,GI50,M14,50.7 µM (inactive)
same,GI50,DLD-1,31.9 µM (inactive)
same,GI50,SNB-75,32.7 µM (inactive)
same,GI50,SK-MEL-5,37.9 µM (inactive)
same,GI50,XF498,54.2 µM (inactive)
same,GI50,OVCAR-8,27.7 µM (inactive)
same,GI50,RXF 393,23.9 µM (inactive)
same,GI50,MOLT-4,23.8 µM (inactive)
same,GI50,OVCAR-4,27.9 µM (inactive)
same,GI50,SNB-78,39.4 µM (inactive)
same,GI50,SF-539,38.5 µM (inactive)
same,GI50,NCI-H460,41.5 µM (inactive)
same,GI50,LXFL 529,29.3 µM (inactive)
same,GI50,K562,32.1 µM (inactive)
same,GI50,SF-295,> 100 µM (inactive)
same,GI50,M19-MEL,31.6 µM (inactive)
same,GI50,SN12C,53.2 µM (inactive)
same,GI50,SK-MEL-2,> 100 µM (inactive)
same,GI50,OVCAR-5,> 100 µM (inactive)
same,GI50,A549,> 100 µM (inactive)
same,GI50,SK-MEL-28,38.5 µM (inactive)
same,GI50,NCI-H522,21.5 µM (inactive)
same,GI50,SF-268,51.1 µM (inactive)
same,GI50,HCT-116,53.5 µM (inactive)
same,GI50,HL-60,21.5 µM (inactive)
same,GI50,786-0,> 100 µM (inactive)
same,GI50,NCI-H226,37.6 µM (inactive)
same,GI50,SR,24 µM (inactive)
same,GI50,ACHN,> 100 µM (inactive)
same,GI50,NCI-H23,35.3 µM (inactive)
same,GI50,KM-20L2,> 100 µM (inactive)
CCCCCOCC(O)CO (stereo not given),GI50,EKVX,> 100 µM (inactive)
same,GI50,UACC-62,> 100 µM (inactive)
same,GI50,SNB-19,> 100 µM (inactive)
same,GI50,HOP-62,> 100 µM (inactive)
same,GI50,DMS-273,> 100 µM (inactive)
same,GI50,KM12,> 100 µM (inactive)
same,GI50,LOX IMVI,> 100 µM (inactive)
same,GI50,TK-10,> 100 µM (inactive)
same,GI50,SW-620,> 100 µM (inactive)
same,GI50,HCT-15,> 100 µM
same,GI50,U-251,> 100 µM (inactive)
same,GI50,IGROV-1,> 100 µM (inactive)
same,GI50,COLO 205,> 100 µM (inactive)
same,GI50,DLD-1,> 100 µM (inactive)
same,GI50,UACC-257,> 100 µM (inactive)
same,GI50,SK-MEL-5,> 100 µM (inactive)
same,GI50,HOP-18,> 100 µM (inactive)
same,GI50,XF498,44.6 µM (inactive)
same,GI50,OVCAR-8,> 100 µM (inactive)
same,GI50,RXF 393,> 100 µM (inactive)
same,GI50,HOP-92,> 100 µM (inactive)
same,GI50,OVCAR-4,> 100 µM (inactive)
same,GI50,SNB-78,> 100 µM (inactive)
same,GI50,SF-539,> 100 µM (inactive)
same,GI50,NCI-H460,> 100 µM (inactive)
same,GI50,OVCAR-3,> 100 µM (inactive)
same,GI50,SF-295,> 100 µM (inactive)
same,GI50,CAKI-1,> 100 µM (inactive)
same,GI50,SN12C,> 100 µM (inactive)
same,GI50,SK-MEL-2,> 100 µM (inactive)
same,GI50,OVCAR-5,> 100 µM (inactive)
same,GI50,A549,> 100 µM (inactive)
same,GI50,SK-MEL-28,> 100 µM (inactive)
same,GI50,SF-268,> 100 µM (inactive)
same,GI50,HCT-116,> 100 µM (inactive)
same,GI50,786-0,> 100 µM (inactive)
same,GI50,DMS-114,> 100 µM (inactive)
same,GI50,NCI-H226,> 100 µM (inactive)
same,GI50,Malme-3M,> 100 µM (inactive)
same,GI50,ACHN,> 100 µM (inactive)
same,GI50,NCI-H23,> 100 µM (inactive)
same,GI50,A498,> 100 µM (inactive)
same,GI50,KM-20L2,> 100 µM (inactive)
CCOc1ccc(NC(=O)C2=C(C)NC(C)=C(C(=O)Nc3ccc(OCC)cc3)C2c2ccc([N+](=O)[O-])cc2)cc1,GI50,EKVX,29 µM (inactive)
same,GI50,SNB-19,36 µM (inactive)
same,GI50,HOP-62,36.1 µM (inactive)
same,GI50,KM12,29.9 µM (inactive)
same,GI50,HT-29,33.9 µM (inactive)
same,GI50,LOX IMVI,42 µM (inactive)
same,GI50,TK-10,17.9 µM (inactive)
same,GI50,SW-620,22.3 µM (inactive)
same,GI50,CCRF-CEM,13.3 µM (inactive)
same,GI50,UO-31,17.7 µM (inactive)
same,GI50,U-251,27.8 µM (inactive)
same,GI50,IGROV-1,49 µM (inactive)
same,GI50,HCC 2998,22.1 µM (inactive)
same,GI50,COLO 205,17.8 µM (inactive)
same,GI50,M14,23.7 µM (inactive)
same,GI50,DLD-1,25.9 µM (inactive)
same,GI50,SNB-75,29.4 µM (inactive)
same,GI50,UACC-257,39.2 µM (inactive)
same,GI50,SK-MEL-5,15.3 µM (inactive)
same,GI50,XF498,25.3 µM (inactive)
same,GI50,OVCAR-8,35 µM (inactive)
same,GI50,RXF 393,14 µM (inactive)
same,GI50,HOP-92,12.9 µM (inactive)
same,GI50,MOLT-4,7.1 µM (inactive)
same,GI50,OVCAR-4,9.29 µM (inactive)
same,GI50,SNB-78,34.1 µM (inactive)
same,GI50,SF-539,24.3 µM (inactive)
same,GI50,NCI-H460,22.9 µM (inactive)
same,GI50,OVCAR-3,30.3 µM (inactive)
same,GI50,LXFL 529,22.1 µM (inactive)
same,GI50,K562,23.3 µM (inactive)
same,GI50,SF-295,38 µM (inactive)
same,GI50,CAKI-1,30 µM (inactive)
same,GI50,M19-MEL,26.2 µM (inactive)
same,GI50,SN12C,42.9 µM (inactive)
same,GI50,SK-MEL-2,16.2 µM (inactive)
same,GI50,OVCAR-5,31.8 µM (inactive)
same,GI50,A549,17.9 µM (inactive)
same,GI50,SK-MEL-28,34.2 µM (inactive)
same,GI50,NCI-H522,22.6 µM (inactive)
same,GI50,SF-268,27.4 µM (inactive)
same,GI50,HL-60,18.3 µM (inactive)
same,GI50,RPMI-8226,13.8 µM (inactive)
same,GI50,786-0,29.3 µM (inactive)
same,GI50,DMS-114,18.4 µM (inactive)
same,GI50,SK-OV-3,> 100 µM (inactive)
same,GI50,NCI-H226,26.8 µM (inactive)
same,GI50,Malme-3M,24.4 µM (inactive)
same,GI50,ACHN,21.1 µM (inactive)
same,GI50,NCI-H23,28.2 µM (inactive)
same,GI50,A498,6.32 µM (inactive)
same,GI50,KM-20L2,20 µM (inactive)
